# Data as given in patent US7807703B2, “Substituted aryl ketones” (Bayer CropScience AG, priority 2002, dated 2010).
# Assay: log P determination by reversed-phase HPLC (EEC Directive 79/831 Annex V.A8; acidic or neutral mobile phase)
# Assay type: physicochemical
# Settings: HPLC reversed-phase C18, 43° C.; acidic range: 0.1% aqueous phosphoric acid, acetonitrile gradient (marked a))
# In short: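 Values marked a) used an acidic eluent of 0.1% aqueous phosphoric acid, those marked b) a neutral eluent of 0.01 molar phosphate buffer, each with acetonitrile rising linearly from 10% to 90%. Column C18 at 43° C, following EEC Directive 79/831 Annex V.A8.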
row,Structure (SMILES),logP
1,CONCc1c(Cl)ccc(C(=O)C2C(=O)CCCC2=O)c1Cl [Example 129],logP = 2.33^a)

# Same assay, conditions: HPLC, reversed-phase C18, 43° C.; acidic range a): 0.1% aqueous phosphoric acid, acetonitrile, linear gradient 10% to 90% acetonitrile
row,Structure (SMILES),logP
1,CCN(Cc1c(Cl)ccc(C(=O)C2C(=O)CCCC2=O)c1OC)OC [Example 483],logP = 3.19^a)
2,CCN(Cc1c(S(C)(=O)=O)ccc(C(=O)C2C(=O)CCC(C)(C)C2=O)c1Cl)OC (stereo not drawn) [Example 405],(I-2) logP = 3.70^a)
3,CN(Cc1c(Cl)ccc(C(=O)C2C(=O)CCC(C)(C)C2=O)c1Cl)S(C)(=O)=O (stereo not drawn) [Example 459],(I-2) logP = 3.01^a)
4,CCON(C)Cc1c(S(C)(=O)=O)ccc(C(=O)c2cnn(C)c2O)c1Cl [Example 414],logP = 1.71^a)
5,CCn1ncc(C(=O)c2ccc(Cl)c(CN(C)S(C)(=O)=O)c2Cl)c1O [Example 456],logP = 1.72^a)
6,CCn1ncc(C(=O)c2ccc(S(C)(=O)=O)c(CN(C)OC(C)C)c2Cl)c1O [Example 395],logP = 2.33^a)
7,CCn1ncc(C(=O)c2ccc(S(C)(=O)=O)c(CN(C)S(C)(=O)=O)c2Cl)c1O [Example 452],logP = 1.25^a)
8,CCn1ncc(C(=O)c2ccc(S(C)(=O)=O)c(CN(OC)C3CCCOC3)c2Cl)c1O (stereo not drawn) [Example 412],(I-2) logP = 2.01^a)
9,COc1c(C(=O)C2C(=O)CCCC2=O)ccc(Cl)c1CN(C)S(C)(=O)=O [Example 472],logP = 2.20^a)
10,CCN(Cc1c(S(C)(=O)=O)ccc(C(=O)C2C(=O)CCC(C)(C)C2=O)c1Cl)S(C)(=O)=O (stereo not drawn) [Example 466],(I-2) logP = 2.64^a)
11,CON(Cc1c(S(C)(=O)=O)ccc(C(=O)c2cnn(C)c2O)c1Cl)C(C)C1CC1 (stereo not drawn) [Example 374],(I-2) logP = 2.53^a)
12,CCON(Cc1c(S(C)(=O)=O)ccc(C(=O)C2C(=O)CCCC2=O)c1Cl)C(C)C [Example 418],logP = 3.66^a)
13,CCON(C)Cc1c(S(C)(=O)=O)ccc(C(=O)C2C(=O)CCCC2=O)c1Cl [Example 424],logP = 2.82^a)
14,CCN(CC)C(=O)CN(Cc1c(S(C)(=O)=O)ccc(C(=O)c2cnn(C)c2O)c1Cl)OC [Example 388],(I-2) logP = 1.59^a)
15,CCN(Cc1c(Cl)ccc(C(=O)c2cnn(C)c2O)c1OC)S(C)(=O)=O [Example 463],logP = 1.80^a)

# Same assay, conditions: HPLC, reversed-phase C 18, 43° C.; acidic range: 0.1% aqueous phosphoric acid, acetonitrile (marked a) or acidic)
row,Structure (SMILES),log P (acidic)
1,COC(=O)c1ccc(S(C)(=O)=O)c(CN(OC)C2CCOCC2)c1Cl [VIII-60],logPacidic = 2.38
2,COC(=O)c1ccc(S(C)(=O)=O)c(CN(C)OC2CCCC2)c1Cl [VIII-49],logPacidic = 3.48
3,CCN(Cc1c(S(C)(=O)=O)ccc(C(=O)OC)c1Cl)OC(C)C [VIII-46],logPacidic = 3.39
4,COC(=O)c1ccc(S(C)(=O)=O)c(CN(OC(C)C)C(C)C)c1Cl [VIII-47],logPacidic = 3.86
5,CCN(Cc1c(Cl)ccc(C(=O)OC)c1OC)OC [VIII-67],logPacidic = 3.43
6,CCON(Cc1c(S(C)(=O)=O)ccc(C(=O)OC)c1Cl)C(C)C [VIII-44],logPacidic = 3.52
7,CCON(Cc1c(S(C)(=O)=O)ccc(C(=O)OC)c1Cl)CC1CCOC1 (stereo not drawn) [VIII-55],logPacidic = 2.60
8,C=CCN(Cc1c(S(C)(=O)=O)ccc(C(=O)OC)c1Cl)OC [VIII-35],logPacidic = 2.87
9,COC(=O)c1ccc(S(C)(=O)=O)c(CN(OC)C(=O)C(C)C)c1Cl [VIII-51],logPacidic = 2.21
10,CCN(Cc1c(S(C)(=O)=O)ccc(C(=O)OC)c1Cl)S(C)(=O)=O [VIII-72],logPacidic = 1.88

# Same assay, conditions: HPLC, reversed-phase C 18, 43° C.; mobile phase range not marked
row,Structure (SMILES),"logP (HPLC, mobile phase not marked)"
1,CCn1ncc(C(=O)c2ccc(S(C)(=O)=O)c(CN(C)OC)c2Cl)c1O [Example 304],1.78
2,CON(C)Cc1c(S(C)(=O)=O)ccc(C(=O)C2C(=O)CCCC2=O)c1Cl [Example 303],(I-2) 2.49

# Same assay, conditions: reversed-phase C18 HPLC column; HPLC, reversed-phase C 18, 43° C.; mobile phase range not marked; read-out: log P
row,Structure (SMILES),chromatographic logP
1,"CON(C)Cc1c(Cl)ccc(C(=O)O)c1Cl [II-1, 2,4-dichloro-3-(N-methoxy-N-methylaminomethyl)benzoic acid]",1.99
2,"CCOC(=O)c1ccc(Cl)c(OCCNS(C)(=O)=O)c1Cl [VIII-2, ethyl 2,4-dichloro-3-(2-methylsulphonylaminoethoxy)benzoate]",2.35
